Source: US12246036B2, “Composition for use in the prevention and in the treatment of iron deficiency” (PHARMANUTRA S.P.A., priority 2017, dated 2025)

What was measured:
[1] = Dilution test of iron compositions in sterile PBS and cell culture medium (dissolution properties); format: physicochemical; conditions: for appearance after initial ten-fold dilution: 3 mg/ml of iron, PBS and medium; for appearance after further ten-fold dilution: 300 micrograms/ml of iron
Protocol: (§1) The iron content of the compounds (with the exception of the vitamin D and the sucrosomial matrix) was 30 mg/ml. A 1:100 dilution was performed for all of the compounds in sterile PBS in order to obtain an iron concentration of 300 micrograms/ml. […] The final iron concentration used in the experiments has been described elsewhere (Barisani et al. “Iron overload and gene expression in HepG2 cells: analysis by differential display” FEBS Letters 2000, 469, 208-212). The compounds (initial dilution of […]) were diluted in an incomplete FBS-free medium (RPMI 1640 for the U937 cells, EMEM for the HepG2 cells) with a dilution factor of 1:6 for a final iron concentration of 50 micrograms/ml. A test was conducted to assess the effect of the compounds on the cell cultures: induced FlepG2 and U937 were seeded a with a cell density of 650,000 cells/ml in 6 wells (final volume 1.5 ml/well). After 24 hours the medium was replaced with a new FBS-free (incomplete) one containing 50 µg/ml of iron and after 24 hours the cells were macroscopically checked (visual inspection using a microscope).
Before the cells were treated with the selected compounds, they were tested to assess their dissolution properties. The compounds were diluted in sterile PBS and in the standard cell culture medium (EMEM).

U937 cells = conditions: 50 micrograms/ml of iron, 24 hours
Protocol: as §1

hepcidin = assay: Hepcidin produced by LPS-stimulated HepG2 cells in supernatant (ELISA); format: cell-based, human; conditions: LPS-stimulated HepG2, 18 hours of treatment; combination compared to vitamin D alone or sucrosomial iron alone (FIG. 2)
Protocol: The HepG2 cells were seeded in 6 wells at a concentration of 650,000 cells/ml (1.5 ml/well). The plates were incubated for 24 hours at 37° C. and 5% CO2 first. Afterwards, the 24-hour medium was replaced with an incomplete EMEM without FEM, containing 40 ng/ml of LPS. A control well was prepared with an LPS-FBS-free incomplete medium. After 20 hours of incubation at 37° C. and 5% CO2, the medium was replaced with the iron treatment solutions (medium containing 50 µg/ml of iron). In the control well, the medium was replaced by an incomplete FBS-free EMEM medium. Another control well without iron was prepared, replacing a container containing LPS with a fresh incomplete FBS-free medium. After 6, 18 and 24 ore, the hours, the supernatants were collected from the wells, centrifugated for 10 minutes at 1000 g, transferred into a new tube and stored a −20° C. for the analysis of hepcidin and CRP. The cells of each well collected were detached using trypsin and counted using Trypan blue with a Bürker counting chamber.

Row | Compound | appearance after initial ten-fold dilution [1] | appearance after further ten-fold dilution [1] | appearance of the compounds before dilution in PBS / EMEM ([1]; compounds as supplied (30 mg/ml iron)) | effect on the cytoplasmic volume of the cells (U937 cells) | hepcidin level/expression in supernatants of HepG2 cells (hepcidin)
1 | O=P([O-])([O-])OP(=O)([O-])[O-].O=P([O-])([O-])OP(=O)([O-])[O-].O=P([O-])([O-])OP(=O)([O-])[O-].[Fe+3].[Fe+3].[Fe+3].[Fe+3] [iron pyrophosphate] | changed the colour (pH) of the medium from red to yellow | no evident colour change | – | – | –
2 | O=S(=O)([O-])[O-].[Fe+2] [iron sulphate] | changed the colour (pH) of the medium from red to yellow | moderate colour change | separated in two phases | loss of volume | –
3 | vitamin D | no problems | – | – | – | higher
